Measurements taken from patent US6525001B1, “Substituted pyrimidine and pyridine herbicides” (Mid-American Commercialization Corporation, priority 1997, dated 2003).

Assays:
Assay type in all cases: in vivo
Design in all cases: key: 0 is no effect; 10 is complete control
[1] = test system: bedstraw (Galium aparine); experiment: Test B pre-/postemergence
Outline: (§1)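 Seeds were planted and sprayed preemergence, while plants at 2 to 18 cm (1- to 4-leaf stage) were sprayed postemergence at the same time, with test chemical in a non-phytotoxic solvent mixture containing surfactant. After twelve to sixteen days in a greenhouse, injury was rated visually against untreated controls on a 0–10 scale.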

[2] = test system: rape (Brassica napus); experiment: Test B pre-/postemergence
Outline: as §1

[3] = test system: bamyardgrass (Echinochloa crus-galli); experiment: Test B flood test
Outline: (§2)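 Plants were grown to the 2-leaf stage before treatment with test chemical, then held in a greenhouse for twelve to sixteen days. Injury was visually rated against untreated controls on a 0–10 scale, where 0 is no effect and 10 is complete control.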

[4] = test system: duck salad (Heteranthera limosa); experiment: Test B flood test
Outline: as §2

[5] = test system: rice (Oryza sativa); experiment: Test B flood test
Outline: as §2

[6] = test system: smallflower flatsedge (Cyperus difformis); experiment: Test B flood test
Outline: as §2

[7] = Preemergence, Rate 62 g/ha, scale of 0 to 10
[8] = Rate 62 g/ha, Postemergence (flood test)
[9] = Rate 125 g/ha, Postemergence section (flood test species)
[10] = Rate 250 g/ha, Postemergence (flood test species)
[11] = Rate 500 g/ha, Postemergence (flood test species)
[12] = Rate 125 g/ha, Postemergence, flood test

SMILES	Plant response rating, Bedstraw [1, 7]	Bedstraw plant response rating ([1]; Rate 62 g/ha, Postemergence)	Bedstraw plant response rating ([1]; Rate 125 g/ha, Postemergence)	Plant response rating, Bedstraw ([1]; Rate 125 g/ha, Preemergence)	Plant response rating, Bedstraw ([1]; Rate 250 g/ha, Postemergence)	Plant response rating, Bedstraw ([1]; Rate 250 g/ha, Preemergence)	Plant response rating, Bedstraw ([1]; Rate 500 g/ha, Postemergence)	Plant response rating, Bedstraw ([1]; Rate 500 g/ha, Preemergence)	Plant response rating, Rape ([2]; Rate 250 g/ha, Postemergence)	Plant response rating, Rape ([2]; Rate 250 g/ha, Preemergence)	Plant response rating, Rape ([2]; Rate 500 g/ha, Postemergence)	Plant response rating, Rape ([2]; Rate 500 g/ha, Preemergence)	Plant response rating, Barnyardgrass [3, 10]	Plant response rating, Barnyardgrass [3, 11]	Plant response rating, Ducksalad [4, 10]	Plant response rating, Ducksalad [4, 11]	Plant response rating, Rice [5, 10]	Plant response rating, Rice [5, 11]	Plant response rating, S. Flatsedge [6, 10]	Plant response rating, S. Flatsedge [6, 11]	also measured
Cc1cnc(-c2ccc(C(F)(F)F)cc2)nc1C(=O)c1ccc(C(F)(F)F)cc1 [Compound 74]	0	1	1	0	2	0	6	0	1	0	3	0	0	0	0	0	0	0	0	0	Plant response rating, Rape [2, 7]: 0; Rape plant response rating ([2]; Rate 62 g/ha, Postemergence): 1; Rape plant response rating ([2]; Rate 125 g/ha, Postemergence): 1; Plant response rating, Rape ([2]; Rate 125 g/ha, Preemergence): 0; Barnyardgrass plant response rating [3, 8]: 0; Barnyardgrass plant response rating [3, 9]: 0; Ducksalad plant response rating [4, 8]: 0; Ducksalad plant response rating [4, 9]: 0; Rice plant response rating [5, 8]: 0; Rice plant response rating [5, 9]: 0; S. Flatsedge plant response rating [6, 8]: 0; S. Flatsedge plant response rating [6, 9]: 0
Cc1cnc(-c2ccc(C(F)(F)F)cc2)nc1Cn1cc(I)cn1 [Compound 12]	–	–	–	–	10	4	10	8	9	6	9	6	3	3	1	2	3	3	8	8	Plant response rating, Bedstraw ([1]; Rate 62 g/ha, Postemergence): 7; Bedstraw plant response rating ([1]; Rate 62 g/ha, Preemergence): 2; Plant response rating, Bedstraw ([1]; Rate 125 g/ha, Postemergence): 9; Bedstraw plant response rating ([1]; Rate 125 g/ha, Preemergence): 4; Plant response rating, Rape ([2]; Rate 62 g/ha, Postemergence): 7; Rape plant response rating ([2]; Rate 62 g/ha, Preemergence): 0; Plant response rating, Rape ([2]; Rate 125 g/ha, Postemergence): 9; Rape plant response rating ([2]; Rate 125 g/ha, Preemergence): 5; Plant response rating, Barnyardgrass [3, 8]: 2; Plant response rating, Barnyardgrass [3, 12]: 2; Plant response rating, Ducksalad [4, 8]: 0; Plant response rating, Ducksalad [4, 12]: 1; Plant response rating, Rice [5, 8]: 1; Plant response rating, Rice [5, 12]: 2; Plant response rating, S. Flatsedge [6, 8]: 4; Plant response rating, S. Flatsedge [6, 12]: 6
Cc1cnc(-n2ccc(C(F)(F)C(F)(F)F)n2)nc1C(=O)c1cccc(C(F)(F)F)c1 [Compound 68]	3	5	6	5	9	6	10	6	–	4	7	8	4	4	2	3	3	3	7	7	Plant response rating, Rape [2, 7]: 2; Rape plant response rating ([2]; Rate 62 g/ha, Postemergence): 6; Rape plant response rating ([2]; Rate 125 g/ha, Postemergence): 6; Plant response rating, Rape ([2]; Rate 125 g/ha, Preemergence): 3; Barnyardgrass plant response rating [3, 8]: 2; Barnyardgrass plant response rating [3, 9]: 3; Ducksalad plant response rating [4, 8]: 0; Ducksalad plant response rating [4, 9]: 1; Rice plant response rating [5, 8]: 0; Rice plant response rating [5, 9]: 1; S. Flatsedge plant response rating [6, 8]: 5; S. Flatsedge plant response rating [6, 9]: 7
Cc1cnc(-c2ccc(C(F)(F)F)cc2)nc1C(=O)c1cccc(OC(F)(F)F)c1 [Compound 75]	3	5	9	6	9	6	–	8	9	4	–	4	3	–	2	–	1	–	1	–	Plant response rating, Rape [2, 7]: 2; Rape plant response rating ([2]; Rate 62 g/ha, Postemergence): 5; Rape plant response rating ([2]; Rate 125 g/ha, Postemergence): 7; Plant response rating, Rape ([2]; Rate 125 g/ha, Preemergence): 3; Barnyardgrass plant response rating [3, 8]: 2; Barnyardgrass plant response rating [3, 9]: 2; Ducksalad plant response rating [4, 8]: 0; Ducksalad plant response rating [4, 9]: 1; Rice plant response rating [5, 8]: 1; Rice plant response rating [5, 9]: 1; S. Flatsedge plant response rating [6, 8]: 0; S. Flatsedge plant response rating [6, 9]: 0
Cc1cnc(-c2ccc(C(F)(F)F)cc2)nc1Cn1ccc(C(F)(F)C(F)(F)F)n1 [Compound 14]	–	–	–	–	8	0	10	2	6	2	7	8	5	6	2	3	5	5	8	9	Plant response rating, Bedstraw ([1]; Rate 62 g/ha, Postemergence): 4; Bedstraw plant response rating ([1]; Rate 62 g/ha, Preemergence): 0; Plant response rating, Bedstraw ([1]; Rate 125 g/ha, Postemergence): 4; Bedstraw plant response rating ([1]; Rate 125 g/ha, Preemergence): 0; Plant response rating, Rape ([2]; Rate 62 g/ha, Postemergence): 5; Rape plant response rating ([2]; Rate 62 g/ha, Preemergence): 0; Plant response rating, Rape ([2]; Rate 125 g/ha, Postemergence): 6; Rape plant response rating ([2]; Rate 125 g/ha, Preemergence): 1; Plant response rating, Barnyardgrass [3, 8]: 4; Plant response rating, Barnyardgrass [3, 12]: 5; Plant response rating, Ducksalad [4, 8]: 2; Plant response rating, Ducksalad [4, 12]: 2; Plant response rating, Rice [5, 8]: 4; Plant response rating, Rice [5, 12]: 4; Plant response rating, S. Flatsedge [6, 8]: 8; Plant response rating, S. Flatsedge [6, 12]: 8
